# Measurements: US9757402B2, “Method for measuring cell-to-cell transmission of α-synuclein aggregates using bimolecular fluorescence complementation system and method for screening a substance for preventing or treating neurodegenerative disease using the same” (KONKUK UNIVERSITY INDUSTRIAL COOPERATION CORP, priority 2014, dated 2017)
# Key:
# Assay type in all cases: in vivo, Caenorhabditis elegans
# [1] = system: asp-4(ok2693); V1S+SV2 and asp-1(tm666); V1S+SV2 worms; assay: Epistasis analysis: GlcNAc treatment of cathepsin mutant BiFC worms; settings: asp-1 and asp-4 mutant transgenic animals, in contrast to V1S+SV2 worms
# Source text: A plasmid expressing hlh-30p::hlh-30::gfp was obtained from Dr. Malene Hansen (Sanford-Burnham Medical Research Institute, CA, USA). The plasmid hlh-30p::hlh-30 was designed to introduce codon before the GFP coding sequence using a QuickChange Site-Directed Mutagenesis Kit to inhibit GFP expression. As a control, each Pmyo-2::V1S or Pflp 21::SV2-ICR-DsRed and hlh-30p::hlh-30 were co-injected into the gonads of late L4-stage N2 worm with pRF4. The plasmids expressing Pmyo-2::V1S, Pflp-21::SV2-ICR-DsRed and hlh-30p::hlh-30 were co-injected into the gonads of late L4-stage daf-16(mu86) mutant worms with pRF4. To analyze lysosomal dysfunction, asp-4(ok2693) and asp-1(tm666) mutant worms, in which the lysosomal enzyme cathepsin gene is inactivated, were used. Pmyo-2::V1S and Pflp-21::SV2-ICR-DsRed plasmids were co-injected into the gonads of late L4-stage mutant worms with pRF4. After transgenic lines containing the introduced plasmids were obtained, three representative lines of each genotype were used for experiments
# (§1) N-acetylglucosamine (GlcNAc) (Sigma) was dissolved in distilled water to prepare 1 M as stock solution. The stock solution was diluted with LB liquid medium. The L4-stage worms of each transgenic line were transferred to NGM plates containing a final concentration of 10 mM GlcNAc.
# α-synuclein aggregates = assay: Dot blot and western blot of α-synuclein aggregates in transgenic worms
# Method: N-acetylglucosamine (GlcNAc) (Sigma) was dissolved in distilled water to prepare 1 M as stock solution. The stock solution was diluted with LB liquid medium. The L4-stage worms of each transgenic line were transferred to NGM plates containing a final concentration of 10 mM GlcNAc. Adult worms were washed with M9 buffer and subsequently with PBS containing 1% Triton X-100. The worm pellet was sonicated in PBS containing 1% Triton X-100, 1% (v/v) protease inhibitor cocktail (Sigma) and centrifuged to obtain the Triton-soluble (supernatant) and insoluble (pellet) fractions. Protein concentration was measured using the BCA protein assay kit (Pierce, Rockford, USA). Protein samples (3 μg for α-synuclein expression test and 50 μg to detect polyubiquitin proteins) were loaded onto 12% SDS-PAGE gels. The primary antibodies used for western blotting were monoclonal anti-α-synuclein antibody, 274 mAb and anti-ubiquitn antibody (ab7254; Abcam, Cambridge, Mass.). Chemiluminescence detection was performed using the LAS-3000 luminescence image analyzer, (Fujifilm, Tokyo, Japan), and Multi Gauge (y3.0) software. Adult worms of each strain were washed with M9 buffer and subsequently with PBS containing 1% Triton X-100. […] Chemiluminescence detection was performed using the LAS-3000 luminescence image analyzer and Multi Gauge (v3.0) software.
# [2] = system: single tissue expression lines carrying V1S or SV2 alone in N2 and daf-16(mu86) mutant worms; assay: GlcNAc treatment of single tissue expression lines (V1S or SV2 alone)
# Method: Pmyo-2::V1S and Pflp-21::SV2-ICR-DsRed plasmids were co-injected into the gonads of late L4-stage daf-2(e1370) and daf-16(mu86) mutant worms with the pRF4. As a control for aging related BiFC models, Pmyo-2::V1S or Pflp-21::SV2::ICR::DsRed alone was injected into the gonads of late L4-stage of N2 and daf-16(mu86) mutant worms with pRF4. After several transgenic lines containing the introduced plasmids were obtained, three representative lines in each mutant background were used for experiments.
# Worms were immobilized with 10 mM sodium azide in M9 buffer, mounted on 2% agar pads, and covered with a coverslip. Images of the worms were acquired using Olympus FV1000 confocal laser scanning microscopy (Olympus, Tokyo, Japan).
# as §1
# Adult worms of each strain were washed with M9 buffer and subsequently with PBS containing 1% Triton X-100. The worm pellet was sonicated in PBS containing 1% Triton X-100, 1% (v/v) protease inhibitor cocktail. Protein samples (500 ng) were loaded onto nitrocellulose membranes, which were then dried and incubated in blocking solution. The primary antibodies used for dot blotting were the monoclonal anti-α-synuclein antibodies 274 mAb and Syn-O2, the latter of which is specific for aggregated α-synuclein. Chemiluminescence detection was performed using the LAS-3000 luminescence image analyzer and Multi Gauge (v3.0) software.
# [3] = system: polyubiquitinated proteins; assay: Steady state levels of polyubiquitinated proteins (western blotting) in transgenic worms; settings: transgenic animals treated with GlcNAc
# Method: N-acetylglucosamine (GlcNAc) (Sigma) was dissolved in distilled water to prepare 1 M as stock solution. The stock solution was diluted with LB liquid medium. The L4-stage worms of each transgenic line were transferred to NGM plates containing a final concentration of 10 mM GlcNAc. Adult worms were washed with M9 buffer and subsequently with PBS containing 1% Triton X-100. The worm pellet was sonicated in PBS containing 1% Triton X-100, 1% (v/v) protease inhibitor cocktail (Sigma) and centrifuged to obtain the Triton-soluble (supernatant) and insoluble (pellet) fractions. Protein concentration was measured using the BCA protein assay kit (Pierce, Rockford, USA). Protein samples (3 μg for α-synuclein expression test and 50 μg to detect polyubiquitin proteins) were loaded onto 12% SDS-PAGE gels. The primary antibodies used for western blotting were monoclonal anti-α-synuclein antibody, 274 mAb and anti-ubiquitn antibody (ab7254; Abcam, Cambridge, Mass.). Chemiluminescence detection was performed using the LAS-3000 luminescence image analyzer, (Fujifilm, Tokyo, Japan), and Multi Gauge (y3.0) software.
# [4] = system: V1S+SV2 and daf-16(mu86); V1S+SV2 animals; assay: BiFC-positive inclusion body formation / aggregate transmission in C. elegans BiFC model with GlcNAc treatment
# Method: Pmyo-2::V1S and Pflp-21::SV2-ICR-DsRed plasmids were co-injected into the gonads of late L4-stage N2 worms with a selection marker, pRF4 which expresses a mutant collagen gene, rol-6(su1006) (Mello, C. C., et al. 1991. Efficient gene transfer in C. elegans: extrachromosomal maintenance and integration of transforming sequences. The EMBO J 10, 3959-3970), to prepare double transgenic line expressing the BiFC pair. As a negative control for BiFC, Pmyo-2::V1S alone was injected into N2 worms with pRF4, and Pflp-21::SV2-ICR-DsRed alone was injected into unc-119(ed3) mutant worms with a selection marker, pCFJ151, which expresses unc-119(+) gene (Frokjaer-Jensen, et al. 2008. Single-copy insertion of transgenes in Caenorhabditis elegans. Nat. Genet 40, 1375-1383). The plasmid Pmyo-2::V1 was prepared to express the BiFC partial sequence only by introducing the stop codon right before the α-synuclein coding sequence in Pmyo-2::V1S and was prepared using a QuickChange Site-Directed Mutagenesis Kit (Stratagene, La Jolla, Calif.). Pmyo-2::V1 and Pflp-21::SV2-ICR-DsRed plasmids were then co-injected into N2 with pRF4. In addition, Pflp-21::DsRed was injected into N2 with pRF4 as a control for the effects of general protein overexpression in neurons. For chromosomal integration of the introduced plasmids, injected lines were exposed to UV irradiation. […]
# [5] = system: V1S+SV2 and daf-16(mu86); V1S+SV2 animals; assay: Pharyngeal pumping analysis with GlcNAc treatment; settings: 10 mM GlcNAc, both V1S+SV2 and daf-16(mu86)
# Method: Pharyngeal pumping was counted for 1 min at RT using a fluorescence microscope. 25 worms from each strain were analyzed. The data were expressed as PPM (Pumps Per Minute). N-acetylglucosamine (GlcNAc) (Sigma) was dissolved in distilled water to prepare 1 M as stock solution. The stock solution was diluted with LB liquid medium. The L4-stage worms of each transgenic line were transferred to NGM plates containing a final concentration of 10 mM GlcNAc.
# [6] = system: lysosomal genes, sqst-1/p62; assay: Expression of lysosomal and autophagy genes (qPCR) upon GlcNAc treatment
# Method: as §1
# Adult transgenic worms derived from daf-16(mu86) mutants with or without hlh-30p::hlh-30 expression were collected, and washed in M9 buffer. The worms in the buffer were sonicated and the samples were subjected to several freeze-thaw cycles using liquid nitrogen. RNA was extracted with Trizol (Invitrogen, Carlsbad, Calif.) and purified using the RNeasy kit (Qiagen, Valencia, Calif., USA). Each cDNA was synthesized from 500 ng of total RNA using the iScript cDNA synthesis kit (Bio-Rad, Hercules, Calif.). For real-time PCR, target genes and specific primers were mixed with SYBR Premix Ex Taq II (Takara, Shiga, Japan) in 96-well plates. Specific primers previously designed by other group were used (Lapierre, L. R., et al. (2013). The TFEB orthologue HLH-30 regulates autophagy and modulates longevity in Caenorhabditis elegans. Nat. Commun 4, 2267). The DNA products were analyzed using the 7500 Real-Time PCR system (Applied Biosystems, Foster City, Calif.). […]
# [7] = system: V1S+SV2 and daf-16(mu86); V1S+SV2 animals; assay: Nerve degeneration in C. elegans BiFC model with GlcNAc treatment; settings: 10 mM GlcNAc, both V1S+SV2 and daf-16(mu86)
# Method: Worms were immobilized with 10 mM sodium azide in M9 buffer, mounted on 2% agar pads, and covered with a coverslip. Images of the worms were acquired using Olympus FV1000 confocal laser scanning microscopy (Olympus, Tokyo, Japan). N-acetylglucosamine (GlcNAc) (Sigma) was dissolved in distilled water to prepare 1 M as stock solution. The stock solution was diluted with LB liquid medium. The L4-stage worms of each transgenic line were transferred to NGM plates containing a final concentration of 10 mM GlcNAc. The present inventors then examined the degeneration of axonal processes from the URA motor neuron (Rogers et al., 2003). These nerves were intact in the wild-type N2 at day 8. Expression of SV2 in neurons caused neuritic bleb formation and nerve fragmentation in a small number of worms (FIGS. 23g, 23h, 23i, 23j, and 23k), indicating autonomous cellular toxicity of α-synuclein in neurons. These degenerative phenotypes were further exacerbated when […] was expressed in the pharyngeal muscle, and approximately 15% of nerves were completely lost (FIG. 23k). To verify nerve fragmentation, 3-D reconstruction of the stacked images of nerve processes was performed. […] Nerve degeneration worsened as the transgenic worms aged (FIG. 23j).
# [8] = system: V1S+SV2 and daf-16(mu86); V1S+SV2 animals; assay: Life span assay with GlcNAc treatment; settings: 10 mM GlcNAc, both V1S+SV2 and daf-16(mu86)
# Method: Eggs laid by adult mother worms were synchronously grown up to the L4 larval stage on NGM plates seeded with E. coli OP50 at 20° C. The L4-stage worms were transferred to NGM plates containing 100 mM 5-fluoro-2′-deoxyuridine (Sigma) to prevent them from producing progeny. The number of worms that were alive or dead was recorded every 1-2 days.
# as §1
smiles,measurement,setting,value
"CC(=O)N[C@H]1C(O)O[C@H](CO)[C@@H](O)[C@@H]1O (stereo partly drawn) [GlcNAc, N-acetylglucosamine]",aging-related phenotypes,[1],not rescued
same,levels of high molecular weight (HM) α-synuclein aggregates,"α-synuclein aggregates; Triton-insoluble (Tx-insol) fraction of transgenic worms, western blot",significantly decreased
same,β-sheet-rich α-synuclein aggregates,"α-synuclein aggregates; dot blot with Syn-02 antibody, transgenic worms",reduced
same,"pathogenic phenotypes (nerve degeneration, pumping behavior, life span)","[2]; V1S or SV2 alone in N2 and daf-16(mu86), versus untreated animals",did not exhibit significant changes
same,expression levels of α-synuclein,"[2]; dot blot, GlcNAc treatment",not changed
same,neuronal expression of flp-21 promoter (Ds-Red),[2]; with or without GlcNAc treatment,strictly confined in neuronal cells
same,levels of polyubiquitinated proteins,[3],decreased
same,formation of BiFC-positive inclusion bodies,"[4]; 10 mM GlcNAc from L4-stage, both V1S+SV2 and daf-16(mu86), V1S+SV2 animals",reduced
same,transmission of α-synuclein aggregates,[4]; BiFC experimental animal model,inhibiting
same,pumping behavior,[5],significantly alleviated
same,pumping behavior,[5]; listed as N-acetylglucosamine,increased
same,expression of lysosomal genes and autophagy gene sqst-1/p62,[6],increased
same,phenotypes for nerve degeneration,[7],significantly alleviated
same,life span,[8],significantly alleviated
same,life span,[8]; listed as N-acetylglucosamine,extended
